Assay results reported in the NIST ThermoML archive (doi:10.1016/j.jct.2012.02.036).

Assay: xn = mol fraction of the nth substance listed
Settings: 101 kPa, Liquid; for mass density: Vibrating tube method

NCCCO [3-amino-1-propanol] + CC(C)O
Settings | mass density, 293.15 K [kg/m3] | mass density, 303.15 K [kg/m3] | mass density, 313.15 K [kg/m3] | mass density, 323.15 K [kg/m3] | mass density, 333.15 K [kg/m3] | viscosity, 293.15 K [mPa·s] | viscosity, 303.15 K [mPa·s] | viscosity, 313.15 K [mPa·s] | viscosity, 323.15 K [mPa·s] | viscosity, 333.15 K [mPa·s]
x1 = 0.1006 | 807.84 | 799.47 | 790.86 | 781.97 | 772.74 | 3.076 | 2.069 | 1.334 | 0.761 | –
x1 = 0.2004 | 830.07 | 821.75 | 813.25 | 804.55 | 795.57 | 4.223 | 2.918 | 1.964 | 1.278 | 0.734
x1 = 0.3 | 851.78 | 843.5 | 835.07 | 826.48 | 817.69 | 5.489 | 3.955 | 2.745 | 1.879 | 1.203
x1 = 0.4007 | 873.12 | 864.86 | 856.49 | 848 | 839.34 | 7.957 | 5.363 | 3.704 | 2.559 | 1.75
x1 = 0.5003 | 894.23 | 885.99 | 877.67 | 869.25 | 860.69 | 11.01 | 7.213 | 4.931 | 3.402 | 2.367
x1 = 0.6 | 914.21 | 906 | 897.72 | 889.36 | 880.9 | 14.58 | 9.397 | 6.266 | 4.356 | 3.063
x1 = 0.7002 | 933.43 | 925.29 | 916.99 | 908.67 | 900.35 | 19.25 | 12.09 | 8.058 | 5.497 | 3.88
x1 = 0.8003 | 952.3 | 944.26 | 935.98 | 927.76 | 919.55 | 25.27 | 15.62 | 10.17 | 6.895 | 4.842
x1 = 0.9001 | 970.56 | 962.49 | 954.37 | 946.21 | 937.99 | 32.08 | 19.5 | 12.46 | 8.337 | 5.894
x1 = 1 | 987.65 | 979.65 | 971.61 | 963.52 | 955.38 | 40.46 | 23.98 | 15.31 | 10.22 | 6.962

NCCCO [3-amino-1-propanol] + CC(C)CO
Settings | mass density, 293.15 K [kg/m3] | mass density, 303.15 K [kg/m3] | mass density, 313.15 K [kg/m3] | mass density, 323.15 K [kg/m3] | mass density, 333.15 K [kg/m3] | viscosity, 293.15 K [mPa·s] | viscosity, 303.15 K [mPa·s] | viscosity, 313.15 K [mPa·s] | viscosity, 323.15 K [mPa·s] | viscosity, 333.15 K [mPa·s]
x1 = 0.1037 | 819.8 | 811.99 | 804.06 | 795.93 | 787.58 | 5.051 | 3.521 | 2.443 | 1.637 | 1.025
x1 = 0.2007 | 837.1 | 829.27 | 821.32 | 813.22 | 804.93 | 6.346 | 4.093 | 3.059 | 2.113 | 1.408
x1 = 0.3006 | 854.9 | 847.02 | 839.04 | 830.95 | 822.7 | 8.282 | 5.473 | 3.688 | 2.534 | 1.699
x1 = 0.4002 | 873.2 | 865.25 | 857.25 | 849.16 | 840.94 | 10.89 | 6.995 | 4.658 | 3.177 | 2.155
x1 = 0.501 | 891.9 | 883.89 | 875.86 | 867.78 | 859.58 | 13.95 | 8.794 | 5.767 | 3.903 | 2.693
x1 = 0.6007 | 910.4 | 902.41 | 894.47 | 886.34 | 878.16 | 17.71 | 10.85 | 7.048 | 4.73 | 3.251
x1 = 0.7008 | 929.5 | 921.49 | 913.45 | 905.35 | 897.17 | 21.85 | 13.33 | 8.496 | 5.666 | 3.88
x1 = 0.8005 | 948.6 | 940.49 | 932.36 | 924.27 | 916.24 | 27.18 | 16.12 | 10.09 | 6.695 | 4.573
x1 = 0.9005 | – | 960.24 | 952.19 | 944.09 | 935.93 | 33.2 | 19.47 | 12.19 | 8.029 | 5.424
x1 = 1 | 987.55 | 979.53 | 971.47 | 963.37 | 955.22 | 40.45 | 23.98 | 15.31 | 10.22 | 6.961
